Results: US20220340629A1, “Myosin Derived Peptides and Related Compounds with Anticoagulant Activities” (THE SCRIPPS RESEARCH INSTITUTE, priority 0001, published 2022)
Starred links: 1 amine or outer side, 2 acyl side, 3 side chain; linkers in the order of their positions; H or OH if unused. Positions of bridges follow the written chain, without caps; N, C: chain ends. Residues, ends and D or L forms follow the SMILES beside them. Suc = O=C(CCC(=O)[*:2])[*:1]

test system: thrombin generation in human platelet poor plasma with skeletal muscle myosin; experiment: Assay 2A: thrombin generation, recalcification of human platelet poor plasma + myosin; assay type: biochemical; settings: human platelet poor plasma 30%, myosin 50 nM, CaCl2 10 mmol/L; read-out: 2A (recalcification +myosin)
Method: Activities of the various peptides and derivative compounds were also examined via assays using recalcification of human plasma. [One of] these assay format (2A) involves monitoring thrombin generation in platelet poor plasma (PPP). Specifically, pooled normal human platelet poor plasma (PPP) (obtained from George King Bio Medical Inc., Overland Park, Kans.) (30%) was incubated with skeletal muscle myosin at 50 nM in the presence of peptide in DMSO or DMSO alone for 5 min at 37° C. Then, fluorogenic thrombin substrate solution (Z-Gly-Gly-Arg-AMC) (I-1140) with CaCl2 (10 mmol/L final) alone was added to the reaction mixture (total 110 μl) to initiate coagulation. Thrombin generation was followed continuously for 25 min using SPECTRAmax GEMINI XS fluorometer (Molecular Devices, Sunnyvale, Calif.) with excitation and emission wavelengths set at 360 and 460 nm, respectively. The first derivative of fluorescence versus time was used to produce thrombin generation curves with the correction for substrate consumption and inner filter effect. For this assay 96 well plate (total 110 μL) or 384 well plates (total 30 μL) were used.
Activities obtained from Assay 2A (recalcification of human plasma in the presence of myosin) were used to rank the various peptides listed in Table 3. As noted above, this assay monitors recalcification of plasma to stimulate thrombin generation. In this assay, potency of the compounds was determined as the peptide concentration for 50% inhibition of thrombin generation, defined as “IC50”.

| SMILES | IC50 [µM] |
| --- | --- |
| CC[C@H](C)[C@H](NC(=O)[C@H](C)NC(=O)[C@H](CCC(=O)O)NC(=O)[C@H](CCCNC(=N)N)NC(=O)[C@H](CCCNC(=N)N)NC(=O)[C@@H]1CCCCNC(=O)CCC(=O)NCCCC[C@@H]2NC(=O)[C@@H](NC(=O)[C@H](C)NC(=O)[C@H](CC(C)C)NC(=O)[C@H](Cc3ccccc3)NC(=O)CNC(=O)[C@H](CCCNC(=N)N)NC(=O)[C@H](CS)NC(=O)[C@H](CCCNC(=N)N)NC(=O)[C@H](C)N)CCCCNC(=O)CCC(=O)NCCCC[C@H](NC(=O)[C@H](CCSC)NC(=O)[C@H](CCCNC(=N)N)NC(=O)[C@H](CCC(N)=O)NC(=O)[C@H](Cc3ccc(O)cc3)NC(=O)[C@H](CCC(=O)O)NC2=O)C(=O)N1)C(=O)N[C@@H](Cc1ccccc1)C(=O)N[C@@H](CS)C(=O)N[C@H](C(=O)N[C@@H](CCC(N)=O)C(=O)N[C@@H](Cc1ccc(O)cc1)C(=O)N[C@@H](CC(N)=O)C(=O)N[C@H](C(=O)N[C@@H](CCCNC(=N)N)C(=O)N[C@@H](CO)C(=O)N[C@@H](Cc1ccccc1)C(=O)N[C@@H](CCSC)C(=O)N[C@@H](CC(N)=O)C(=O)N[C@H](C(=O)N[C@@H](CCCCN)C(=O)N[C@@H](Cc1c[nH]cn1)C(=O)N[C@@H](Cc1c[nH]c2ccccc12)C(=O)N1CCC[C@H]1C(=O)N[C@@H](Cc1c[nH]c2ccccc12)C(N)=O)C(C)C)[C@@H](C)CC)[C@@H](C)CC [HC156] (H-ARCRGFLAKKEYQRMKKRREAIFCIQYNIRSFMNVKHWPW-NH2; linker 9-16, 10-17 via Suc (inferred); N-terminus and C-terminus assumed) | 9.3 |
| CC[C@H](C)[C@H](NC(=O)[C@H](C)NC(=O)[C@H](CCC(=O)O)NC(=O)[C@@H]1CCCCNC(=O)CCC(=O)NCCCC[C@@H]2NC(=O)[C@H](CCC(=O)O)NC(=O)[C@H](C(C)C)NC(=O)[C@@H](NC(=O)[C@H](C)NC(=O)[C@H](CC(C)C)NC(=O)[C@H](Cc3ccccc3)NC(=O)CNC(=O)[C@H](CCCNC(=N)N)NC(=O)[C@H](CS)NC(=O)[C@H](CCCNC(=N)N)NC(=O)[C@H](C)N)CCCCNC(=O)CCC(=O)NCCCC[C@H](NC(=O)[C@H](CCSC)NC(=O)[C@H](CCCNC(=N)N)NC(=O)[C@H](CCC(N)=O)NC2=O)C(=O)N[C@@H](CCC(=O)O)C(=O)N[C@@H](CCCNC(=N)N)C(=O)N1)C(=O)N[C@@H](Cc1ccccc1)C(=O)N[C@@H](CS)C(=O)N[C@H](C(=O)N[C@@H](CCC(N)=O)C(=O)N[C@@H](Cc1ccc(O)cc1)C(=O)N[C@@H](CC(N)=O)C(=O)N[C@H](C(=O)N[C@@H](CCCNC(=N)N)C(=O)N[C@@H](CO)C(=O)N[C@@H](Cc1ccccc1)C(=O)N[C@@H](CCSC)C(=O)N[C@@H](CC(N)=O)C(=O)N[C@H](C(=O)N[C@@H](CCCCN)C(=O)N[C@@H](Cc1c[nH]cn1)C(=O)N[C@@H](Cc1c[nH]c2ccccc12)C(=O)N1CCC[C@H]1C(=O)N[C@@H](Cc1c[nH]c2ccccc12)C(N)=O)C(C)C)[C@@H](C)CC)[C@@H](C)CC [HC157] (H-ARCRGFLAKVEKQRMKERKEAIFCIQYNIRSFMNVKHWPW-NH2; linker 9-16, 12-19 via Suc (inferred); N-terminus and C-terminus assumed) | 11 |
| CC[C@H](C)[C@@H]1NC(=O)[C@H](C)NC(=O)[C@@H](NC(=O)[C@H](CCCNC(=N)N)NC(=O)[C@H](CCCNC(=N)N)NC(=O)[C@H](CCC(=O)O)NC(=O)[C@@H]2CCCCNC(=O)CCC(=O)NCCCC[C@H](NC(=O)[C@H](C)NC(=O)[C@H](CC(C)C)NC(=O)[C@H](Cc3ccccc3)NC(=O)CNC(=O)[C@H](CCCNC(=N)N)NC(=O)[C@H](CS)NC(=O)[C@H](CCCNC(=N)N)NC(=O)[C@H](C)N)C(=O)N[C@@H](C(C)C)C(=O)N[C@@H](CCC(=O)O)C(=O)N[C@@H](Cc3ccc(O)cc3)C(=O)N[C@@H](CCC(N)=O)C(=O)N[C@@H](CCCNC(=N)N)C(=O)N[C@@H](CCSC)C(=O)N2)CCCCNC(=O)CCC(=O)NCCCC[C@@H](C(=O)N[C@@H](CC(N)=O)C(=O)N[C@H](C(=O)N[C@@H](CCCNC(=N)N)C(=O)N[C@@H](CO)C(=O)N[C@@H](Cc2ccccc2)C(=O)N[C@@H](CCSC)C(=O)N[C@@H](CC(N)=O)C(=O)N[C@H](C(=O)N[C@@H](CCCCN)C(=O)N[C@@H](Cc2c[nH]cn2)C(=O)N[C@@H](Cc2c[nH]c3ccccc23)C(=O)N2CCC[C@H]2C(=O)N[C@@H](Cc2c[nH]c3ccccc23)C(N)=O)C(C)C)[C@@H](C)CC)NC(=O)[C@H](CCC(N)=O)NC(=O)[C@H]([C@@H](C)CC)NC(=O)[C@H](CS)NC(=O)[C@H](Cc2ccccc2)NC1=O [HC159] (H-ARCRGFLAKVEYQRMKERRKAIFCIQKNIRSFMNVKHWPW-NH2; linker 9-16, 20-27 via Suc (inferred); N-terminus and C-terminus assumed) | 13.3 |

Further lines, results first:

| IC50 [µM] | SMILES |
| --- | --- |
| 9.4 | CC[C@H](C)[C@H](NC(=O)[C@H](C)NC(=O)[C@H](CCC(=O)O)NC(=O)[C@H](CCCNC(=N)N)NC(=O)[C@H](CCCNC(=N)N)NC(=O)[C@H](CCC(=O)O)NC(=O)[C@@H]1CCCCNC(=O)CCC(=O)NCCCC[C@@H]2NC(=O)[C@H](C)NC(=O)[C@H](CC(C)C)NC(=O)[C@H](Cc3ccccc3)NC(=O)[C@@H](NC(=O)[C@H](CCCNC(=N)N)NC(=O)[C@H](CS)NC(=O)[C@H](CCCNC(=N)N)NC(=O)[C@H](C)N)CCCCNC(=O)CCC(=O)NCCCC[C@H](NC(=O)[C@H](CCC(=O)O)NC(=O)[C@H](C(C)C)NC2=O)C(=O)N[C@@H](CCC(N)=O)C(=O)N[C@@H](CCCNC(=N)N)C(=O)N[C@@H](CCSC)C(=O)N1)C(=O)N[C@@H](Cc1ccccc1)C(=O)N[C@@H](CS)C(=O)N[C@H](C(=O)N[C@@H](CCC(N)=O)C(=O)N[C@@H](Cc1ccc(O)cc1)C(=O)N[C@@H](CC(N)=O)C(=O)N[C@H](C(=O)N[C@@H](CCCNC(=N)N)C(=O)N[C@@H](CO)C(=O)N[C@@H](Cc1ccccc1)C(=O)N[C@@H](CCSC)C(=O)N[C@@H](CC(N)=O)C(=O)N[C@H](C(=O)N[C@@H](CCCCN)C(=O)N[C@@H](Cc1c[nH]cn1)C(=O)N[C@@H](Cc1c[nH]c2ccccc12)C(=O)N1CCC[C@H]1C(=O)N[C@@H](Cc1c[nH]c2ccccc12)C(N)=O)C(C)C)[C@@H](C)CC)[C@@H](C)CC [HC154] (H-ARCRKFLAKVEKQRMKERREAIFCIQYNIRSFMNVKHWPW-NH2; linker 5-12, 9-16 via Suc (inferred); N-terminus and C-terminus assumed) |
| 9.5 | CC[C@H](C)[C@H](NC(=O)[C@H](C)NC(=O)[C@H](CCC(=O)O)NC(=O)[C@H](CCCNC(=N)N)NC(=O)[C@H](CCCNC(=N)N)NC(=O)[C@H](CCC(=O)O)NC(=O)[C@@H]1CCCCNC(=O)CCC(=O)NCCCC[C@@H]2NC(=O)[C@H](C)NC(=O)[C@H](CC(C)C)NC(=O)[C@@H](NC(=O)CNC(=O)[C@H](CCCNC(=N)N)NC(=O)[C@H](CS)NC(=O)[C@H](CCCNC(=N)N)NC(=O)[C@H](C)N)CCCCNC(=O)CCC(=O)NCCCC[C@H](NC(=O)[C@H](Cc3ccc(O)cc3)NC(=O)[C@H](CCC(=O)O)NC(=O)[C@H](C(C)C)NC2=O)C(=O)N[C@@H](CCCNC(=N)N)C(=O)N[C@@H](CCSC)C(=O)N1)C(=O)N[C@@H](Cc1ccccc1)C(=O)N[C@@H](CS)C(=O)N[C@H](C(=O)N[C@@H](CCC(N)=O)C(=O)N[C@@H](Cc1ccc(O)cc1)C(=O)N[C@@H](CC(N)=O)C(=O)N[C@H](C(=O)N[C@@H](CCCNC(=N)N)C(=O)N[C@@H](CO)C(=O)N[C@@H](Cc1ccccc1)C(=O)N[C@@H](CCSC)C(=O)N[C@@H](CC(N)=O)C(=O)N[C@H](C(=O)N[C@@H](CCCCN)C(=O)N[C@@H](Cc1c[nH]cn1)C(=O)N[C@@H](Cc1c[nH]c2ccccc12)C(=O)N1CCC[C@H]1C(=O)N[C@@H](Cc1c[nH]c2ccccc12)C(N)=O)C(C)C)[C@@H](C)CC)[C@@H](C)CC [HC155] (H-ARCRGKLAKVEYKRMKERREAIFCIQYNIRSFMNVKHWPW-NH2; linker 6-13, 9-16 via Suc (inferred); N-terminus and C-terminus assumed) |
| 5.8 | CC[C@H](C)[C@H](NC(=O)[C@H](C)NC(=O)[C@@H]1CCCCNC(=O)CCC(=O)NCCCC[C@@H]2NC(=O)[C@H](Cc3ccc(O)cc3)NC(=O)[C@H](CCC(=O)O)NC(=O)[C@H](C(C)C)NC(=O)[C@@H](NC(=O)[C@H](C)NC(=O)[C@H](CC(C)C)NC(=O)[C@H](Cc3ccccc3)NC(=O)CNC(=O)[C@H](CCCNC(=N)N)NC(=O)[C@H](CS)NC(=O)[C@H](CCCNC(=N)N)NC(=O)[C@H](C)N)CCCCNC(=O)CCC(=O)NCCCC[C@H](NC(=O)[C@H](CCSC)NC(=O)[C@H](CCCNC(=N)N)NC2=O)C(=O)N[C@@H](CCC(=O)O)C(=O)N[C@@H](CCCNC(=N)N)C(=O)N[C@@H](CCCNC(=N)N)C(=O)N1)C(=O)N[C@@H](Cc1ccccc1)C(=O)N[C@@H](CS)C(=O)N[C@H](C(=O)N[C@@H](CCC(N)=O)C(=O)N[C@@H](Cc1ccc(O)cc1)C(=O)N[C@@H](CC(N)=O)C(=O)N[C@H](C(=O)N[C@@H](CCCNC(=N)N)C(=O)N[C@@H](CO)C(=O)N[C@@H](Cc1ccccc1)C(=O)N[C@@H](CCSC)C(=O)N[C@@H](CC(N)=O)C(=O)N[C@H](C(=O)N[C@@H](CCCCN)C(=O)N[C@@H](Cc1c[nH]cn1)C(=O)N[C@@H](Cc1c[nH]c2ccccc12)C(=O)N1CCC[C@H]1C(=O)N[C@@H](Cc1c[nH]c2ccccc12)C(N)=O)C(C)C)[C@@H](C)CC)[C@@H](C)CC [HC158] (H-ARCRGFLAKVEYKRMKERRKAIFCIQYNIRSFMNVKHWPW-NH2; linker 9-16, 13-20 via Suc (inferred); N-terminus and C-terminus assumed) |
